Test results: article PMC11864979, “First-in-class ultralong-target-residence-time p38α inhibitors as a mitosis-targeted therapy for colorectal cancer” (Nature Cancer, 2025)
Where two headings read alike, the source gives them in different places.

Experiments:
Test in all cases: selectivity profiling in a panel of 340 wild-type kinases (Reaction Biology Europe)
Format in all cases: binding
340 wild-type kinases [1] = target: T1, 340 wild-type kinases (Homo sapiens, UniProt Q13153)
T1 construct: purchased Reaction Biology Europe

340 wild-type kinases [2] = target: T2, 340 wild-type kinases (Homo sapiens, UniProt P08922)
T2 construct: purchased Reaction Biology Europe

340 wild-type kinases [3] = target: T3, 340 wild-type kinases (Homo sapiens, UniProt Q6XUX3)
T3 construct: purchased Reaction Biology Europe
T3 sequence (Q6XUX3 1-929): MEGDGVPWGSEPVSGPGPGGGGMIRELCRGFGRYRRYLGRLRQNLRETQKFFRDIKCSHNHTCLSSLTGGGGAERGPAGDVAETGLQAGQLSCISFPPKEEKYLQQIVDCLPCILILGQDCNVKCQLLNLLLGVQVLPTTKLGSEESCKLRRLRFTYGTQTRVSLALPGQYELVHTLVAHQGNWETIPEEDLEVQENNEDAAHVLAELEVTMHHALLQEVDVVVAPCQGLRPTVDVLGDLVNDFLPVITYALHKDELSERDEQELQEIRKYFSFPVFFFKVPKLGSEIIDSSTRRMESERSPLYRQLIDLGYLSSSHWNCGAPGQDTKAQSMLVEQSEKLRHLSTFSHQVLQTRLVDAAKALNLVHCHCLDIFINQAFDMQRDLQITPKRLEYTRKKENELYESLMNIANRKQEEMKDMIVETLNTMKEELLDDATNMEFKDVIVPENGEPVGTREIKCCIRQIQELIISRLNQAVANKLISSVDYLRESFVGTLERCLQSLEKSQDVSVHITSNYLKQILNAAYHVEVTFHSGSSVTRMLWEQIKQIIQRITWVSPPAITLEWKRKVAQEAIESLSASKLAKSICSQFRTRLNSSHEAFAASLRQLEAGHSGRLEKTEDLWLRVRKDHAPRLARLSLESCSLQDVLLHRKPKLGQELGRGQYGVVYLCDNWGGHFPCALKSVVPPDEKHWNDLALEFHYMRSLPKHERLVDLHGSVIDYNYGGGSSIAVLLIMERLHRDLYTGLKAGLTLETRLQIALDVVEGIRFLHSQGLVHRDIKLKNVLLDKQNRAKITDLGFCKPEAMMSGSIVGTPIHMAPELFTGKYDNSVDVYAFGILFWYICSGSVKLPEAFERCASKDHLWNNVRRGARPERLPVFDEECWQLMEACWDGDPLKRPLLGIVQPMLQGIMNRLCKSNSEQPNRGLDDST

340 wild-type kinases [4] = target: T4, 340 wild-type kinases (Homo sapiens, UniProt P51957)
T4 construct: purchased Reaction Biology Europe

340 wild-type kinases [5] = target: T5, 340 wild-type kinases (Homo sapiens, UniProt Q13555)
T5 construct: purchased Reaction Biology Europe

340 wild-type kinases [6] = target: T6, 340 wild-type kinases (Homo sapiens, UniProt Q12851)
T6 construct: purchased Reaction Biology Europe
T6 sequence (Q12851 1-820): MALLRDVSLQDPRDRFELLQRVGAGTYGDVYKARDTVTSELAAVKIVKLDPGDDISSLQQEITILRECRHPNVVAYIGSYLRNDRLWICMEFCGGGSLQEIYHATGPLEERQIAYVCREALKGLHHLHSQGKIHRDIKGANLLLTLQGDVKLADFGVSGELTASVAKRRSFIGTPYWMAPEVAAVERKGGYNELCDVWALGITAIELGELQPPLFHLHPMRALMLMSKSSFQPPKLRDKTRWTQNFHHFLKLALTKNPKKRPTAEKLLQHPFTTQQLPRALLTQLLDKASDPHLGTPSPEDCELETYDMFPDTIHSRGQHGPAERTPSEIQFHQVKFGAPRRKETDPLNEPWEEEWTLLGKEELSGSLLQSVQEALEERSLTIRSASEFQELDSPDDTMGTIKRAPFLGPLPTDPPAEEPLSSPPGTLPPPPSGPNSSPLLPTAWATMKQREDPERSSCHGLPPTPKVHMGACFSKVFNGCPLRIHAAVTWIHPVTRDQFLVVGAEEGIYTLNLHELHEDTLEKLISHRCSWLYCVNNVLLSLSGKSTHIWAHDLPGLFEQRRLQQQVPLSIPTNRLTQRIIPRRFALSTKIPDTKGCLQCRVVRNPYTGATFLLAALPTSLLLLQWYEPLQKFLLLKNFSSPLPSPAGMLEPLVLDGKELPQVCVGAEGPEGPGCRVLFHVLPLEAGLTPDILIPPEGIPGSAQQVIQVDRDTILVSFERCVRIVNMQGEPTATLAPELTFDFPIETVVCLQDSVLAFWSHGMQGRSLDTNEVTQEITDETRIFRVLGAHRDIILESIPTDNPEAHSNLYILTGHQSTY

340 wild-type kinases [7] = target: T7, 340 wild-type kinases (Homo sapiens, UniProt Q9H4B4)
T7 construct: purchased Reaction Biology Europe
T7 sequence (Q9H4B4 whole entry): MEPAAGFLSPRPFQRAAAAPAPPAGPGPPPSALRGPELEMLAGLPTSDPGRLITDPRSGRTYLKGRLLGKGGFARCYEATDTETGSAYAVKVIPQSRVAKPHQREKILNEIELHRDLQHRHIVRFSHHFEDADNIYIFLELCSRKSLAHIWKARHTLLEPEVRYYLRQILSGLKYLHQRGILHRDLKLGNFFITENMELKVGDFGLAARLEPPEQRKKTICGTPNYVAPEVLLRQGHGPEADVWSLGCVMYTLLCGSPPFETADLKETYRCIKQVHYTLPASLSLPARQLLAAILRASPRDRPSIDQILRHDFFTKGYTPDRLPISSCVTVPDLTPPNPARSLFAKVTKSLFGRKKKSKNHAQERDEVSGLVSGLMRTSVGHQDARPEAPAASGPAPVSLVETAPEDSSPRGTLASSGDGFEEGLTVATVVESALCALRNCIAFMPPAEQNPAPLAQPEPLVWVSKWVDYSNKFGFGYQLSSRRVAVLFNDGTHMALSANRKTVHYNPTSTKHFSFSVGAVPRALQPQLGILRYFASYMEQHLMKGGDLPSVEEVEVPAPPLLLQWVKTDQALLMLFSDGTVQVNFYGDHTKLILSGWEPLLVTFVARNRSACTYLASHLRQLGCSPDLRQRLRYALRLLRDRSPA

T4 sequence (P51957 whole entry): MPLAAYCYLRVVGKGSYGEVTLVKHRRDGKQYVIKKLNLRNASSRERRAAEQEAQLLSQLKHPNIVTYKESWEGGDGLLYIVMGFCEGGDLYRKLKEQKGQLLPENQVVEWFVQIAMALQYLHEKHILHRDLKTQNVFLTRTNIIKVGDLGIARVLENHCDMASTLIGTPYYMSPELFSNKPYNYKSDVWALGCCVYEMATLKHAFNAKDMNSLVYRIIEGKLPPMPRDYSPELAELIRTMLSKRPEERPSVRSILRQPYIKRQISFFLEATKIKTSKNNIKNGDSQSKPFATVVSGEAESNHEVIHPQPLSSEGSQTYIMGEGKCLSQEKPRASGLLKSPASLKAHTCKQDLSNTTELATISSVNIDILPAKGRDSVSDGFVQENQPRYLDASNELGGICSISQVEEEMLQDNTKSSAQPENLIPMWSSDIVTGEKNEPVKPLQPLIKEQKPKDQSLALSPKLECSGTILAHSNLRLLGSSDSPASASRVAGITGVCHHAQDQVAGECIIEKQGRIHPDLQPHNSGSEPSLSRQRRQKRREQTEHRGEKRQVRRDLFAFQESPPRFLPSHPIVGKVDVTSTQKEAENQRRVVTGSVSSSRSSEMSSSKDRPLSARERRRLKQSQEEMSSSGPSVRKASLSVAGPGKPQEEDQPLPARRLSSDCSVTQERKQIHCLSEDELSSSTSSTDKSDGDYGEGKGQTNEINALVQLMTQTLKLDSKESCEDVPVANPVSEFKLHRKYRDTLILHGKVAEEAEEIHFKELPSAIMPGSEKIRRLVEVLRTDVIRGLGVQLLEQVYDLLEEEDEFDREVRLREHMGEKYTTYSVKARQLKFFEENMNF
T5 sequence (Q13555 whole entry): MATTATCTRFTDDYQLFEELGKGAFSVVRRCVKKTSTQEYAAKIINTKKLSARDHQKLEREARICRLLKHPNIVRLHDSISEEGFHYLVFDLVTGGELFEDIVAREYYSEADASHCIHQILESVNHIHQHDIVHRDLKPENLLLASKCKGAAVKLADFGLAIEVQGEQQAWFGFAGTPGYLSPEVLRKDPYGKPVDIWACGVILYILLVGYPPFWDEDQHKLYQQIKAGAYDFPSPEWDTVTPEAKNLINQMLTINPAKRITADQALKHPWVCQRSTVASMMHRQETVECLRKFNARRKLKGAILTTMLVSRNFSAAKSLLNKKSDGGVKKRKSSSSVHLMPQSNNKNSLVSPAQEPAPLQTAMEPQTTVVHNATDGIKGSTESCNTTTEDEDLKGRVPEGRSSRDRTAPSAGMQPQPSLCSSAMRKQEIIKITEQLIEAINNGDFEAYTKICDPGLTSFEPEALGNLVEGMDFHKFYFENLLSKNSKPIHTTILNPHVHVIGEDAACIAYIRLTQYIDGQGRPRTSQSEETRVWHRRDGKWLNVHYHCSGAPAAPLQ
T1 sequence (Q13153 whole entry): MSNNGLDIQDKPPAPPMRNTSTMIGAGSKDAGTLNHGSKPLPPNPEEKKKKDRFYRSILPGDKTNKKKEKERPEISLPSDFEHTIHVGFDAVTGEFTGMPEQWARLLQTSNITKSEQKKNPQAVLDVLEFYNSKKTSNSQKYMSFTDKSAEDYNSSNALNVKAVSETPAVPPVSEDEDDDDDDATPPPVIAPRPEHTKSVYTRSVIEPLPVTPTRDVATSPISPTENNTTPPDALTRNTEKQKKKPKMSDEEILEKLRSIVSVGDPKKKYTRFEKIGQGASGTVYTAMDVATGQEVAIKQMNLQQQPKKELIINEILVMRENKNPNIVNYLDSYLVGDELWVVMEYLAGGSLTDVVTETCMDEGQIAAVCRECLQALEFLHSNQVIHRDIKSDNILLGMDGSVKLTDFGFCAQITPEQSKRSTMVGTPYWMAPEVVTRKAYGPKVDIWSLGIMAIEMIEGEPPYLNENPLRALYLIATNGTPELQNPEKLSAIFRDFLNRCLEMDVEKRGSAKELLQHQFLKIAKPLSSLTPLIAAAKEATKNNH
T2 sequence (P08922 28-2347): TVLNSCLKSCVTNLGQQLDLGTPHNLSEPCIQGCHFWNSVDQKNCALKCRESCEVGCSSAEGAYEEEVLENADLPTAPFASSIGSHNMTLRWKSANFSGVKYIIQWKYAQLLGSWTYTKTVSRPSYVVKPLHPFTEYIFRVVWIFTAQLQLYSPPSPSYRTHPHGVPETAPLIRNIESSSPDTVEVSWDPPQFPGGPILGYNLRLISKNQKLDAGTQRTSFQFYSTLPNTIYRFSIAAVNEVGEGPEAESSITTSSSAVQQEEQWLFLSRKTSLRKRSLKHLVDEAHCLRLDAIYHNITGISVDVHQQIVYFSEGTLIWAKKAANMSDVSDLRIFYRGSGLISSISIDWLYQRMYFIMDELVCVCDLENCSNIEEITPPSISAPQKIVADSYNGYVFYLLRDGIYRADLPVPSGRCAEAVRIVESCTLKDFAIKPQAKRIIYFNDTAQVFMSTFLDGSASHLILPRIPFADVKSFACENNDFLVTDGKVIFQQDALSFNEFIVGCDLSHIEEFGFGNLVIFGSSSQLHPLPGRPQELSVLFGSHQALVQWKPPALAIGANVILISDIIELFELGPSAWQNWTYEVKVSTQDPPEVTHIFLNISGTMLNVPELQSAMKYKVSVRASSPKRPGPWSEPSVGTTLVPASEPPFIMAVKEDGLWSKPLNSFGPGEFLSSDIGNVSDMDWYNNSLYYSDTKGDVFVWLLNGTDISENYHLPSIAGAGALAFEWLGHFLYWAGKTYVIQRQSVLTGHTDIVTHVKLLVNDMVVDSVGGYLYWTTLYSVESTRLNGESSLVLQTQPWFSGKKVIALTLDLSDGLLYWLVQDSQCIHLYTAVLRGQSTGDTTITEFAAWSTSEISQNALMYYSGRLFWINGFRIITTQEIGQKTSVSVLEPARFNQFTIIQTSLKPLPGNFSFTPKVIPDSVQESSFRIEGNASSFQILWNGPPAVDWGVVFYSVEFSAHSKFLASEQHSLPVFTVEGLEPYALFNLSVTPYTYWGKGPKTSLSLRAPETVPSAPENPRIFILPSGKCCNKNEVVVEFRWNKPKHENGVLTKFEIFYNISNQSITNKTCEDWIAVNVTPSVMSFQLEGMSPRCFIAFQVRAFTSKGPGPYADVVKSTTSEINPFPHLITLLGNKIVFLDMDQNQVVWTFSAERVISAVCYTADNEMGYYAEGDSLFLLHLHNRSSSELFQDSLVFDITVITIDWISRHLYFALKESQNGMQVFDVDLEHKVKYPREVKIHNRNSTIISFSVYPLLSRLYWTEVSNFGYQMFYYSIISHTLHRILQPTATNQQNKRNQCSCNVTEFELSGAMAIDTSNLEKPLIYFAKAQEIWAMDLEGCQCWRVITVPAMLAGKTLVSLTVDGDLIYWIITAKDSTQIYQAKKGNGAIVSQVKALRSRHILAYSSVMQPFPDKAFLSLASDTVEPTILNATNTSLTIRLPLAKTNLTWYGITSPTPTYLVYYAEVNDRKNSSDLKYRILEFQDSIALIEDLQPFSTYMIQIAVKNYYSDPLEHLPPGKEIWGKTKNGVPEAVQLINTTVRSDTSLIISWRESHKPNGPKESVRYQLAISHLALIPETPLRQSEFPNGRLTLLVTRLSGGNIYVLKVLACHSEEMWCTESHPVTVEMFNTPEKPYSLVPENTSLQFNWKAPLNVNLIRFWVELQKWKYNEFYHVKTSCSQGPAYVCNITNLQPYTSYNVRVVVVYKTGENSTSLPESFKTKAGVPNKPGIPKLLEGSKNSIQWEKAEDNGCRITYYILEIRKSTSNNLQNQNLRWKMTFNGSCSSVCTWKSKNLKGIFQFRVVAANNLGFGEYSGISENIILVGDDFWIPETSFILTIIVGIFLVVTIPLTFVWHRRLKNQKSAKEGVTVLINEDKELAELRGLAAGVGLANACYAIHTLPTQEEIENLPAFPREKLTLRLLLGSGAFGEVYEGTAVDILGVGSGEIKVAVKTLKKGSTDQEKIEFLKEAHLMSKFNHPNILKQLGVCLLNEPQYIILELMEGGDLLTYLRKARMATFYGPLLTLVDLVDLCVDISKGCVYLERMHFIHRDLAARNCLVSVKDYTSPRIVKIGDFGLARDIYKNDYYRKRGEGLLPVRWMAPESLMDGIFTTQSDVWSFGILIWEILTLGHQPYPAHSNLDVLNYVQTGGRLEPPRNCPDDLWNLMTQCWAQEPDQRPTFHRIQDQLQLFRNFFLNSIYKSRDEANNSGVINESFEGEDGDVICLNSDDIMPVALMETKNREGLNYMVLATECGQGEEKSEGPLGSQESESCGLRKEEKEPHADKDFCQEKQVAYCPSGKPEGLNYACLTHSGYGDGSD

`CNC(=O)c1ccc2c(c1)C(=O)c1ccc(Nc3ccc(F)c(NC(=O)C4CC4)c3)cc1CC2` [Compound 2015] gave a remaining activity at 0.2 µM (340 wild-type kinases [1]; 0.2 µM 2015, read-out: PAK1 residual activity) of 94.7%, a remaining activity at 1 µM (340 wild-type kinases [1]; 1 µM 2015, read-out: PAK1 residual activity) of 79.5% and a remaining activity at 0.2 µM (340 wild-type kinases [1]; PAK1, 0.2 µM, read-out: residual activity) of 94.7%. The remaining activity at 1 µM (340 wild-type kinases [1]; PAK1, 1 µM, read-out: residual activity) was 79.5%, the remaining activity at 0.2 µM (340 wild-type kinases [2]; 0.2 µM 2015, read-out: ROS residual activity) was 114% and the remaining activity at 1 µM (340 wild-type kinases [2]; 1 µM 2015, read-out: ROS residual activity) was 94.6%. It also gave a remaining activity at 0.2 µM (340 wild-type kinases [2]; ROS, 0.2 µM, read-out: residual activity) of 114%, a remaining activity at 1 µM (340 wild-type kinases [2]; ROS, 1 µM, read-out: residual activity) of 94.6% and a remaining activity at 0.2 µM (340 wild-type kinases [3]; 0.2 µM 2015, read-out: RIPK5 residual activity) of 92.4%. The remaining activity at 1 µM (340 wild-type kinases [3]; 1 µM 2015, read-out: RIPK5 residual activity) was 88.1%, the remaining activity at 0.2 µM (340 wild-type kinases [3]; RIPK5, 0.2 µM, read-out: residual activity) was 92.4% and the remaining activity at 1 µM (340 wild-type kinases [3]; RIPK5, 1 µM, read-out: residual activity) was 88.1%. The remaining activity at 0.2 µM (340 wild-type kinases [4]; 0.2 µM 2015, read-out: NEK4 residual activity) was 105%, the remaining activity at 1 µM (340 wild-type kinases [4]; 1 µM 2015, read-out: NEK4 residual activity) was 101% and the remaining activity at 0.2 µM (340 wild-type kinases [4]; NEK4, 0.2 µM, read-out: residual activity) was 105%. For the same molecule, the remaining activity at 1 µM (340 wild-type kinases [4]; NEK4, 1 µM, read-out: residual activity) was 101%, the remaining activity at 0.2 µM (340 wild-type kinases [5]; 0.2 µM 2015, read-out: CAMK2G residual activity) was 99% and the remaining activity at 1 µM (340 wild-type kinases [5]; 1 µM 2015, read-out: CAMK2G residual activity) was 90.5%. The remaining activity at 0.2 µM (340 wild-type kinases [5]; CAMK2G, 0.2 µM, read-out: residual activity) was 99%, the remaining activity at 1 µM (340 wild-type kinases [5]; CAMK2G, 1 µM, read-out: residual activity) was 90.5% and the remaining activity at 0.2 µM (340 wild-type kinases [6]; 0.2 µM 2015, read-out: MAP4K2 residual activity) was 109%. It also gave a remaining activity at 1 µM (340 wild-type kinases [6]; 1 µM 2015, read-out: MAP4K2 residual activity) of 104%, a remaining activity at 0.2 µM (340 wild-type kinases [6]; MAP4K2, 0.2 µM, read-out: residual activity) of 109% and a remaining activity at 1 µM (340 wild-type kinases [6]; MAP4K2, 1 µM, read-out: residual activity) of 104%. The remaining activity at 0.2 µM (340 wild-type kinases [7]; 0.2 µM 2015, read-out: PLK3 residual activity) was 101%, the remaining activity at 1 µM (340 wild-type kinases [7]; 1 µM 2015, read-out: PLK3 residual activity) was 134% and the remaining activity at 0.2 µM (340 wild-type kinases [7]; PLK3, 0.2 µM, read-out: residual activity) was 101%. The remaining activity at 1 µM (340 wild-type kinases [7]; PLK3, 1 µM, read-out: residual activity) was 134%.
